Results as given in patent publication US4826845A, “3(2H)-pyridazinones and pharmaceutical compositions thereof” (Richter Gedeon Vegyeszeti Gyar T.R., priority 1985, dated 1989).
Counter-ions that a name gives are not always drawn. Like-named read-outs stand apart in the source and are kept apart here.

Legend:
[1] = target: T1, potential-mediated calcium channel (Rattus norvegicus, UniProt P22002); test: Calcium-antagonism on isolated portal vein: potential-mediated calcium channel; assay type: cell-based
T1 construct: from tissue; host or cells: isolated rat portal vein
Protocol: (§1) The calcium-antagonism of the compounds of the invention was studied on an isolated vessel preparation based on the work of M. Fiol de Cuneo et al. [Arch. Int. Pharmacodyn.
(§2) Male CFY rats with a body-weight of 150 to 200 g were bled by decapitation and the portal vein was immediately prepared starting from the hepatic portal. The vessel was longitudinally incised, bound to a transducer registering the contractions and incubated under a tension of 1 g at 37° C. in a calcium-free Krebs-Ringer bicarbonate solution aerated with carbogen. After an equilibration lasting for 30 minutes, the functioning of the receptor-mediated and the K^+ -depolarisation-mediated calcium channels, respectively, were investigated.
For investigating the potential-mediated calcium channel, the vein placed in the calcium-free Krebs-Ringer solution was washed by adding and then by removing 80 millimoles of potassium chloride while maintaining the isotania until no contraction appeared on repeatedly adding potassium chloride.
(§3) All measurements were carried out at 37° C. while bubbling through carbogen.

[2] = system: pre- and postsynaptic alpha receptors; test: Action on the pre- and postsynaptic adrenergic alpha receptors on the stimulated mouse vas deferens; assay type: cell-based; settings: concentration 10^-7 mole
Protocol: The method of Hughes et al. [Brit. J. Phamacol. 51, pp. 139-140P (1975)] was used. The preparations suspended in a modified Krebs solution at 31° C. were excited by the field stimulation method [rectangular paired impulses with 1 msec interval, supramaximal potential (70 to 75 V=8 to 9 V/cm) and 100 msec impulse interval, pairs repeated in each 10 sec]. After stimulation, norepinephrine (NE) was dropped into the organ bath and a dose-response curve was taken up. Thus, the effect of both the endogenous norepinephrine liberated by stimulation and the exogenous norepinephrine could be studied before and after adding the substance to be tested.

anaesthetized cats = test: Measurement of the hypotensive effect on anaesthetized cats (i.v. screening); assay type: in vivo, cat; settings: for Mean arterial pressure decrease: anaesthetized cats; for blood pressure lowering action (in words): intravenous, summary of Table 1
Protocol: A tube was introduced into the trachea of cats anaesthetized by the intraperitoneal (i.p.) administration of 35 mg/kg of sodium pentobarbital whereby the spontaneous breathing was supported. On the one side of the animals, the femoral artery and vein were exposed and a polyethylene cannula was introduced in both vessels each. The substances to be tested were administered through the venous cannula. The mean arterial blood pressure was measured by connecting the arterial cannula with a Statham P 23 Db pressure transducer and electromanometer.
As a first screening dose, 5 mg/kg of the compounds to be tested were intravenously (i.v.) administered.

[3] = system: adrenergic receptor-mediated calcium channel; test: Calcium-antagonism on isolated portal vein: adrenergic receptor-mediated calcium channel; assay type: cell-based; settings: rat portal vein, 1×10^-5 mole norepinephrine, 37° C.; read-out: Inhibition of the calcium channel, adrenergic receptor-mediated, IC50
Protocol: as §1, §2, §3

conscious SH rats [4] = test: Antihypertensive effect on conscious, spontaneously hypertensive (SH) rats after oral administration; assay type: in vivo, rat
From the text: The systolic blood pressure was indirectly measured by the tail-cuff method. The compounds to be tested were introduced orally (p.o.) to the animals. The blood pressure measurements were made by using a 5-channel automatized equipment.

[5] = system: pressor (blood pressure increasing) effect of epinephrine; test: Inhibition of the pressor effect of epinephrine; settings: in vivo
anaesthetized dogs = test: Hypotensive and heart rate effects on anaesthetized dogs after intravenous or intraduodenal administration; assay type: in vivo, Beagle dog
Protocol: (§4) Beagle dogs of both sexes were anaesthetized by the intravenous administration of 40 mg/kg of sodium pentobarbital. A cannula was introduced to the femoral artery and vein each on one side for the intravenous administration of the compounds to be tested as well as for measuring the blood pressure.
In an other series of these experiments, the substances were administered through a duodenal tube. Similarly to the experiments carried out on cats, the systemic arterial blood pressure was measured by using an electromanometer and the cardiotachometer was triggered by the heart rate wave sign. […]

[6] = system: conscious renal hypertensive rats; test: Antihypertensive effect on conscious renal hypertensive rats after acute oral treatment; assay type: in vivo, rat; settings: 1.25 mg/kg p.o.
From the text: (§5) These experiments were accomplished on conscious spontaneously hypertensive (SH) and renally hypertensive rats.
(§6) The systolic blood pressure and heart rate of the animals were indirectly measured by using the tail-cuff method by means of a 5- channel automatized equipment.

[7] = system: postsynaptic alpha1 receptor; test: Kinetic analysis on rabbit aorta strip preparation: postsynaptic alpha1 receptor antagonism; assay type: cell-based
Protocol: Male rabbits with a body-weight of 3 to 3.5 kg were used for these experiments. […] A dose response curve was plotted by using norepinephrine and a dose selected from the steepest interval of the curve was added repeatedly to the bath until obtaining equal responses. Then, the compound to be tested was added and after 5 minutes, the dose series of norepinephrine was repeated. The extent of the inhibition was expressed as percentage.

conscious SH rats [8] = test: Antihypertensive effect on conscious SH rats after acute oral treatment; assay type: in vivo, rat; settings: SH rats
From the text: as §5, §6

renal artery = test: Renal arterial vascular resistance in anaesthetized dogs; assay type: in vivo, Beagle dog; settings: 1.0 mg/kg intraduodenal
Protocol: as §4
In an other series of these experiments, the substances were administered through a duodenal tube. Similarly to the experiments carried out on cats, the systemic arterial blood pressure was measured by using an electromanometer and the cardiotachometer was triggered by the heart rate wave sign.
The renal artery on one side was exposed retroperitoneally and fitted with an electromagnetic flow-meter head for measuring the blood flow of the renal arterial vascular bed and for determining the local vascular resistance.

[9] = rat portal vein, 80 millimoles KCl, 37° C., read-out: Inhibition of the calcium channel, potential-mediated, IC50

T1 sequence (P22002 whole entry): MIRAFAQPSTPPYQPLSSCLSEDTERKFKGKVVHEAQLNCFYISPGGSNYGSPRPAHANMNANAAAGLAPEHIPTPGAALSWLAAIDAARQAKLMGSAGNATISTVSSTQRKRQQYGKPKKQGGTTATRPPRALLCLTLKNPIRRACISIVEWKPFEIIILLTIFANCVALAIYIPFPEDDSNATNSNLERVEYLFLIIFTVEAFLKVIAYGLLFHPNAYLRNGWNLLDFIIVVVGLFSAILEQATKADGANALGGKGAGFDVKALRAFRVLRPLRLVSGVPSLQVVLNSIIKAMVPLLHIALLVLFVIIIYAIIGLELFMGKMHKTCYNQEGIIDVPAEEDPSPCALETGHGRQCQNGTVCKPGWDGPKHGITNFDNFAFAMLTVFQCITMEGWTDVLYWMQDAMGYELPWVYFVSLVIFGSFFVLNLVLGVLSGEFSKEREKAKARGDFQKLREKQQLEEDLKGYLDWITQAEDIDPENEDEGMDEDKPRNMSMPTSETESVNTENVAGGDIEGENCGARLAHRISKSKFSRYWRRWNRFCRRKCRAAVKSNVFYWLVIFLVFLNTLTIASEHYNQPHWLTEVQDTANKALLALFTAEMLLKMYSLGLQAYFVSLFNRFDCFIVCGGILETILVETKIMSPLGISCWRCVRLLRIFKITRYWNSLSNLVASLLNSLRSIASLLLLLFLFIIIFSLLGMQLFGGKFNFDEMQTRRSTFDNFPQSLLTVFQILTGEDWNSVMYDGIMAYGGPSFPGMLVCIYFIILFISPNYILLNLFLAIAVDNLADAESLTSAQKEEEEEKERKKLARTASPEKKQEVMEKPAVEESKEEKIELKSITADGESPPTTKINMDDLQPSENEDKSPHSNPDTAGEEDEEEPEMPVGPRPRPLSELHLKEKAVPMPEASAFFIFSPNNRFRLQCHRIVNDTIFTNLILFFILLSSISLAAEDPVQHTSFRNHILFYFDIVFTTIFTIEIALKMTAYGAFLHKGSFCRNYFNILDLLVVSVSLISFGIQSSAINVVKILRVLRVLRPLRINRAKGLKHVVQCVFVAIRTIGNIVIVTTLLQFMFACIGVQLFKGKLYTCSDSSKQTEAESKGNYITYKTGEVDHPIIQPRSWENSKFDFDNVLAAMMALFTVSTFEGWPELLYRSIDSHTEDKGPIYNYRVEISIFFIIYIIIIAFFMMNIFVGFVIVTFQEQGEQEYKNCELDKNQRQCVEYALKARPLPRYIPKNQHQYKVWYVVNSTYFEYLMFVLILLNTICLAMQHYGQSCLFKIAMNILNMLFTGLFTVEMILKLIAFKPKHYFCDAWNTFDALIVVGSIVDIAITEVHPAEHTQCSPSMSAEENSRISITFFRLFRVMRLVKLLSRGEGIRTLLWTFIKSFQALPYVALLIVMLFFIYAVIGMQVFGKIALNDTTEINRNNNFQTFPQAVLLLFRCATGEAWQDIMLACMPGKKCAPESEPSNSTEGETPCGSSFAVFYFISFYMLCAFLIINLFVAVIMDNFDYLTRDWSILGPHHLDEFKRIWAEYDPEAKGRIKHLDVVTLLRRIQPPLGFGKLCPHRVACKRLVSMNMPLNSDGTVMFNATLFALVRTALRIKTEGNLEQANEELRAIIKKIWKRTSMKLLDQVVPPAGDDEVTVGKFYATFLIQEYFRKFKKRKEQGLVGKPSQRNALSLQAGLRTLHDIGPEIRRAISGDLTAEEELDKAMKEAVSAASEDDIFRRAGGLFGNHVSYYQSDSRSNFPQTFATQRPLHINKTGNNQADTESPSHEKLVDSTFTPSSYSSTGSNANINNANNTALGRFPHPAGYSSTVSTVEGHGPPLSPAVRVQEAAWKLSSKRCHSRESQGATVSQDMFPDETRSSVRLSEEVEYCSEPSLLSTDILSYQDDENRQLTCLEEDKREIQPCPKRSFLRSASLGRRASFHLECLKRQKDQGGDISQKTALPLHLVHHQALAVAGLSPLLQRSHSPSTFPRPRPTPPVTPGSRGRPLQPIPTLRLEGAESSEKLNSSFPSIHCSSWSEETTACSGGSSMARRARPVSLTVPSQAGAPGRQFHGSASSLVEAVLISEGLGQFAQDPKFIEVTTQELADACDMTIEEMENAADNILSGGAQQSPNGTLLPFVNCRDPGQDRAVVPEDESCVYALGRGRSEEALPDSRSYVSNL
T1 sequence (P54290 25-944 partner limits assumed): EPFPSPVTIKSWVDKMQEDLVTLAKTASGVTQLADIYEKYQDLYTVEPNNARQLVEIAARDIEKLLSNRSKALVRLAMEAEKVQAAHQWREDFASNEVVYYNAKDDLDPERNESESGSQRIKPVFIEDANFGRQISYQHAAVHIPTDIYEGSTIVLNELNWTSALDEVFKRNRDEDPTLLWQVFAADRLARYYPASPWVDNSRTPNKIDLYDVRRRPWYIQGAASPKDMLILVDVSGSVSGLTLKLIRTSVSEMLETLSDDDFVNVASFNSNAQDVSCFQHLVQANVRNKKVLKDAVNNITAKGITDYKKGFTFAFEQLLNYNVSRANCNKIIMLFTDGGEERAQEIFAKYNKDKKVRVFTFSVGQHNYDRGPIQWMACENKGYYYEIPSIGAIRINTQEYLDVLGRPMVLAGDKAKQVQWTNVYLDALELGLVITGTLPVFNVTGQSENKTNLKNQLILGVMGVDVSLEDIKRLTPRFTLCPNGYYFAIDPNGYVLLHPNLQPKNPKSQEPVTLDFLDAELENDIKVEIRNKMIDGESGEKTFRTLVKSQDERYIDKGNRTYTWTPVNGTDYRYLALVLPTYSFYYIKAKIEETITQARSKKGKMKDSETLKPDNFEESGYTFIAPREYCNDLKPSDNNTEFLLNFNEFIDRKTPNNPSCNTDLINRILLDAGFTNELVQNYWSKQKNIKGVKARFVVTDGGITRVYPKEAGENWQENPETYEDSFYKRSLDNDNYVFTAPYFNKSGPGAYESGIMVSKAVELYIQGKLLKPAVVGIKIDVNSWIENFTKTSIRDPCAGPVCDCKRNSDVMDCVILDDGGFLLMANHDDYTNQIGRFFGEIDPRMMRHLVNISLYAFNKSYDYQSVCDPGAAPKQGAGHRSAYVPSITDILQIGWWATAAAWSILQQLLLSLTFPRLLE
T1 sequence (P54290 945-1091 partner limits assumed): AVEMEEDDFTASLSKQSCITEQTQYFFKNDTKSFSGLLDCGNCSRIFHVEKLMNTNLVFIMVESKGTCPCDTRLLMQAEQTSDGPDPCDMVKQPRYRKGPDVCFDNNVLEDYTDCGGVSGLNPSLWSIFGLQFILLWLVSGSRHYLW

## O=c1ccc(Cl)nn1CCCNCC1COc2ccccc2O1 (centres unmarked) [Example 2, 2-[3-(benzo[1,4]dioxan-2-yl-methylamino)-1-propyl]-6-chloro-3(2H)-pyridazinone hydrochloride]
[1]; [9]
  IC50: 10 µM
[2]
  Inhibition of the stimulation: 0%
Anaesthetized cats; 1.0 mg/kg i.v.
  Mean arterial pressure decrease: -90 Hgmm
Anaesthetized cats
  blood pressure lowering action (in words): particularly expressed
[3]
  IC50: 4 µM

## O=c1ccc(Cl)nn1CCCNCCOc1ccccc1 [Example 4]
[1]; [9]
  IC50: 0.2 µM
Anaesthetized cats; 5.0 mg/kg i.v.
  Mean arterial pressure decrease: -70 Hgmm
Anaesthetized cats
  blood pressure lowering action (in words): particularly expressed
[3]
  IC50: 0.1 µM
Conscious SH rats [4]; 50 mg/kg p.o.
  Decrease in the systolic blood pressure: -33%

## O=c1cccnn1CCCNCCOc1ccccc1 [Example 5]
[1]; [9]
  IC50: 50 µM
[2]
  Inhibition of the stimulation: 16.2%
Anaesthetized cats; 5.0 mg/kg i.v.
  Mean arterial pressure decrease: -100 Hgmm
Anaesthetized cats
  blood pressure lowering action (in words): particularly expressed
[5]
  inhibition of the pressor effect of epinephrine (in words): significant inhibition
[3]
  IC50: 20 µM
Conscious SH rats [4]; 10 mg/kg p.o.
  Decrease in the systolic blood pressure: -45%
Conscious SH rats [4]; 50 mg/kg p.o.
  Decrease in the systolic blood pressure: -42%

## O=c1ccc(-n2cccc2)nn1CCCNCCOc1ccccc1 [Example 6]
Anaesthetized cats; 5.0 mg/kg i.v.
  Mean arterial pressure decrease: -35 Hgmm

## O=c1ccc(Cl)nn1CCCNCCSc1ccccc1 [Example 7]
Anaesthetized cats; 5.0 mg/kg i.v.
  Mean arterial pressure decrease: -35 Hgmm

## O=c1ccc(Cl)nn1CCCNCCOc1ccccc1Cl [Example 8]
Anaesthetized cats; 5.0 mg/kg i.v.
  Mean arterial pressure decrease: -80 Hgmm
Anaesthetized cats
  blood pressure lowering action (in words): particularly expressed
[5]
  inhibition of the pressor effect of epinephrine (in words): significant inhibition
Conscious SH rats [4]; 50 mg/kg p.o.
  Decrease in the systolic blood pressure: -18%

## O=c1cccnn1CCCNCCCOc1ccccc1 [Example 9]
Anaesthetized cats; 5.0 mg/kg i.v.
  Mean arterial pressure decrease: -55 Hgmm

## O=c1cccnn1CCCNCCOc1ccccc1F [Example 10]
Anaesthetized cats; 5.0 mg/kg i.v.
  Mean arterial pressure decrease: -60 Hgmm
[5]
  inhibition of the pressor effect of epinephrine (in words): significant inhibition
Conscious SH rats [4]; 50 mg/kg p.o.
  Decrease in the systolic blood pressure: -25%

## O=c1cccnn1CCNCCOc1ccccc1 [Example 21]
Anaesthetized cats; 5.0 mg/kg i.v.
  Mean arterial pressure decrease: -60 Hgmm

## CCOC(=O)N1CCN(c2ccc(=O)n(CCNCCOc3ccccc3)n2)CC1 [Example 22]
Anaesthetized cats; 5.0 mg/kg i.v.
  Mean arterial pressure decrease: -35 Hgmm

## Cc1cc(C)n(-c2ccc(=O)n(CCNCCOc3ccccc3)n2)n1 [Example 23]
Anaesthetized cats; 5.0 mg/kg i.v.
  Mean arterial pressure decrease: -65 Hgmm

## O=c1cccnn1CCNCC1COc2ccccc2O1 (centres unmarked) [Example 27]
Anaesthetized cats; 5.0 mg/kg i.v.
  Mean arterial pressure decrease: -30 Hgmm

## O=c1ccc(N2CCOCC2)nn1CCNCCOc1ccccc1 [Example 28]
Anaesthetized cats; 5.0 mg/kg i.v.
  Mean arterial pressure decrease: -50 Hgmm

## COC(=O)C1=C(C)NC(C)=C(C(=O)OC)C1c1ccccc1[N+](=O)[O-] [Nifedipine, 2,6-dimethyl-4-(2-nitrophenyl)-1,4-dihydropyridine-3,5-dicarboxylic acid dimethyl ester, reference compound]
[3]
  IC50: 2 µM

## COc1cc2nc(N3CCN(C(=O)c4ccco4)CC3)nc(N)c2cc1OC.Cl [Prazosine, 1-(4-amino-6,7-dimethoxy-2-quinazolinyl)-4-(2-furylcarbonyl)-piperazine hydrochloride, reference compound]
[1]
  IC50: 500 µM
Anaesthetized dogs; prazosine 1 mg/kg intraduodenal
  hypotensive action relative to same intraduodenal dose of compound of Example 3 (or 12): only the half
[6]
  hypotension: 26%
[6]; 5th hour
  hypotension in the 5th hour: 20%
[7]; negative logarithm of the molar antagonist concentration inhibiting the agonist to 50%, norepinephrine agonist, 5 min
  pA2: 9.45
[7]; rabbit aorta, norepinephrine
  Slope of the curve: -0.96
[3]
  IC50: 0.009 µM
Conscious SH rats [8]; 1.25 mg/kg p.o., 5th hour
  antihypertensive effect in the 5th hour: 26%
Renal artery
  decrease in resistance of the renal artery: about 40%

## COc1ccc(CCN(C)CCCC(C#N)(c2ccc(OC)c(OC)c2)C(C)C)cc1OC (centres unmarked) [Verapamil, reference compound]
Anaesthetized dogs; 10 mg/kg intraduodenal
  hypotension: 30%
  time of maximum effect: 30 min
[3]
  IC50: 1 µM
Conscious SH rats [8]; 50 mg/kg p.o.
  antihypertensive effect: 30%
